{"source": "patent US20120208776A1", "about": "(priority 2002, published 2012)", "key": {"[1]": {"tested_on": "MCF7 cells", "assay": "Cell proliferation, cell count (Coulter Counter)", "type": "cell-based, human", "details": "for IC50 / pIC50: MCF7 cells, 96 h; for pIC50: value in parentheses, read-out: IC50"}, "[2]": {"tested_on": "MDA-MB-453 cells", "assay": "MTT assay, 96 hours", "type": "cell-based, human", "details": "Homo sapiens, MTT, 96 h, read-out: IC50", "quoted_text": "(§3) For the Coulter counter assay, cells were seeded at 2×10^4 cells per well in 24 well plates (0.875 cm diameter) as described previously. […] Control and treated cells were compared using the student's t-test (p<0.05). For cell cycle analysis the cells were plated (3×10^5) onto 6 cm dishes and allowed to attach for 24 hours. […] After 24 hours the cells were analyzed by DNA flow cytometry, as described previously."}, "[3]": {"tested_on": "MDA-MB-453 cells", "assay": "Combination of agents, MTT assay, combination index", "protocol": "Calculating the Combination Index. To determine the Combination Index (CI), 1) the Na^+-K^+-ATPase enzyme or 2) MDA-MB-453 cells were exposed to all combinations of 3, 4 or 5 concentrations of each of the agents tested and a solvent control. […] The results of the enzymatic assay of ATPase or MTT assay were analyzed for possible synergistic effects using the median effect principle. Variable ratios of drugs were employed and mutually exclusive equations were assumed.\nCalculating the Combination Index.\nThe simvastatin was obtained from Sigma of St. Louis, Mo. The concentrations tested in the present example were 0, 0.2, 2, 5, and 20 μg/ml actein and 0, 0.8, 4, 20 and 40 μg/ml simvastatin."}, "[4]": {"tested_on": "MCF7 cells", "assay": "Cell-cycle analysis by DNA flow cytometry", "type": "cell-based, human", "details": "about 40 μg/ml", "protocol": "(§1) Synchrony: To synchronize the cells, 3×10^5 cells were plated onto 10 cm dishes and grown for 2 days in DMEM supplemented with 10% fetal bovine serum.\n(§2) After incubation for 1-3 days, the supernatant was collected, and the cells were trypsinized, collected, and washed with phosphate buffered saline (PBS) containing 5% FBS. Cell pellets were re-suspended in 1 ml of PBS plus 5% FBS. Thereafter, 5 ml of 70% ethanol were added drop-wise, while vortexing the tube, and the mixture was stored at 4° C. Cells were centrifuged, washed with PBS plus 5% FBS, and re-suspended in 400 μl of propidium iodide (0.1 mg/ml) (Sigma Chemical Co.). 400 μl (2 mg/ml) of RNase (Sigma Chemical Co.) were added, and the cells were incubated in the dark at room temperature for 30 min."}, "[5]": {"assay": "Solubility (observation)"}, "[6]": {"tested_on": "Na^+-K^+-ATPase", "assay": "Enzymatic assay of adenosine 5′-triphosphatase", "type": "biochemical", "details": "20 μM", "protocol": "Enzymatic assay of adenosine 5′-triphosphatase. The enzymatic assay of ATPase (adenosine 5′-triphosphatase, EC 3.6.1.3) followed the Sigma Prod. […] [P] was determined by the Taussky-Shorr method."}, "[7]": {"tested_on": "MDA-MB-453 cells", "assay": "Combination with chemotherapy agents, cell count, combination index (CI)", "type": "cell-based, human"}, "[8]": {"tested_on": "MDA-MB-453 cells", "assay": "Cell-cycle analysis by DNA flow cytometry", "type": "cell-based, human", "details": "48 hrs", "protocol": "as §1, §2"}, "[9]": {"target": "NTPase/helicase of hepatitis C virus (Hepatitis C virus genotype 1a, UniProt P27958)", "sequence (P27958 1203-1364)": "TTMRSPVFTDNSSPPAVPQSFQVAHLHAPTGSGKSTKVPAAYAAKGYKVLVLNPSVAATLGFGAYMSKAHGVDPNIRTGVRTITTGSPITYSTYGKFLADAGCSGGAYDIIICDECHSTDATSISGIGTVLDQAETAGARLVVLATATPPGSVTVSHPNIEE", "details": "competitive inhibition of ATP binding; cited from earlier work"}, "[10]": {"tested_on": "MDA-MB-453 cells", "assay": "Cell proliferation, cell count (Coulter Counter)", "details": "MDA-MB-453 (FIG. 10)", "quoted_text": "For the cell count assay, breast cancer cells were seeded, in triplicate, at 2×10^4 cells per well, in 24- or 96-well plates.\nas §3"}}, "note": "pIC50: −log10 of the molar value. Read-outs that look alike come from different tables or passages of the source."}
{"molecule": "COc1ccc(/C=C/C(=O)O)cc1O", "note": "[isoferulic, isoferulic acid]", "values": [{"measurement": "effect on the growth of MCF7 cells", "setting": "[1]", "result": "active in suppressing the growth"}]}
{"molecule": "cimifugoside", "values": [{"measurement": "IC50", "setting": "[1]", "result": 22, "unit": "µg/mL"}, {"measurement": "pIC50", "setting": "[1]", "result": 4.44}]}
{"molecule": "CCC(C)(C)C(=O)O[C@H]1C[C@@H](C)C=C2C=C[C@H](C)[C@H](CC[C@@H]3C[C@@H](O)CC(=O)O3)[C@H]21", "note": "[simvastatin]", "values": [{"measurement": "pIC50", "setting": "[2]", "result": 4.67}, {"measurement": "viability at 20 µg/mL", "setting": "[3]; Homo sapiens, MDA-MB-453, read-out: percent viable cells", "result": 83.1, "unit": "%"}, {"measurement": "cell survival", "setting": "[3]; simvastatin 40 ug/ml alone", "result": 58.2, "unit": "%"}]}
{"molecule": "CC(=O)O[C@@H]1C[C@@]23C[C@@]24CC[C@H](O[C@@H]2OC[C@@H](O)[C@H](O)[C@H]2O)C(C)(C)[C@@H]4CC=C3[C@]2(C)C[C@@H]3O[C@@]4(O)[C@H](OC(C)(C)[C@H]4O)[C@@H](C)[C@@H]3[C@@]12C", "note": "[cimiracemoside A]", "values": [{"measurement": "cell-cycle arrest", "setting": "[4]", "result": "induced cell-cycle arrest at G1"}, {"measurement": "IC50", "setting": "[1]", "result": 41, "unit": "µg/mL"}, {"measurement": "pIC50", "setting": "[1]", "result": 4.21}]}
{"molecule": "25-acetyl-7,8-didehydrocimigenol 3-O-β-D-xylopyranoside", "values": [{"measurement": "solubility", "setting": "[5]", "result": "sufficiently soluble"}]}
{"molecule": "CC(=O)O[C@H]1C(=O)[C@@]2(C)[C@H]([C@H](OC(=O)c3ccccc3)[C@]3(O)C[C@H](OC(=O)[C@H](O)[C@@H](NC(=O)c4ccccc4)c4ccccc4)C(C)=C1C3(C)C)[C@]1(OC(C)=O)CO[C@@H]1C[C@@H]2O", "note": "[paclitaxel, reference compound]", "values": [{"measurement": "percent inhibition of in vitro Na^+-K^+-ATPase activity", "setting": "[6]", "result": 21.7, "unit": "%"}, {"measurement": "number of viable cells, average", "setting": "[7]; tax 1", "result": 118624}, {"measurement": "number of viable cells, average", "setting": "[7]; tax 4", "result": 37060.67}, {"measurement": "number of viable cells, average", "setting": "[7]; tax .25 (nM)", "result": 198416.3}, {"measurement": "G1 (%)", "setting": "[8]; (b) Taxol 1 nM", "result": 71.0, "unit": "%"}, {"measurement": "G2/M (%)", "setting": "[8]; (b) Taxol 1 nM", "result": 17.0, "unit": "%"}, {"measurement": "S (%)", "setting": "[8]; (b) Taxol 1 nM", "result": 10.8, "unit": "%"}, {"measurement": "Sub G1 (%)", "setting": "[8]; (b) Taxol 1 nM", "result": 1.0, "unit": "%"}, {"measurement": "pIC50", "setting": "[9]", "result": "~4.80"}, {"measurement": "cell survival", "setting": "[3]; paclitaxel 1 nM alone", "result": 63.2, "unit": "%"}]}
{"molecule": "O=c1[nH]cc(F)c(=O)[nH]1", "note": "[5-FU, 5-fluorouracil, reference compound]", "values": [{"measurement": "G1 (%)", "setting": "[8]; (c) 5-FU 0.02 μg/mL", "result": 28.9, "unit": "%"}, {"measurement": "G2/M (%)", "setting": "[8]; (c) 5-FU 0.02 μg/mL", "result": 20.3, "unit": "%"}, {"measurement": "S (%)", "setting": "[8]; (c) 5-FU 0.02 μg/mL", "result": 47.6, "unit": "%"}, {"measurement": "Sub G1 (%)", "setting": "[8]; (c) 5-FU 0.02 μg/mL", "result": "3.", "unit": "%"}]}
{"molecule": "COc1cccc2c1C(=O)c1c(O)c3c(c(O)c1C2=O)C[C@@](O)(C(=O)CO)C[C@@H]3O[C@H]1C[C@H](N)[C@H](O)[C@H](C)O1", "note": "[Doxorubicin, doxorubicin, reference compound]", "values": [{"measurement": "G1 (%)", "setting": "[8]; (c) Doxorubicin 0.1 μg/mL", "result": 30.1, "unit": "%"}, {"measurement": "G2/M (%)", "setting": "[8]; (c) Doxorubicin 0.1 μg/mL", "result": 61.7, "unit": "%"}, {"measurement": "S (%)", "setting": "[8]; (c) Doxorubicin 0.1 μg/mL", "result": 5.6, "unit": "%"}, {"measurement": "Sub G1 (%)", "setting": "[8]; (c) Doxorubicin 0.1 μg/mL", "result": 2.5, "unit": "%"}]}
{"molecule": "CC(=O)O[C@@H]1C[C@@]23C[C@@]24CC[C@H](O[C@@H]2OC[C@@H](O)[C@H](O)[C@H]2O)C(C)(C)[C@@H]4CC[C@H]3[C@]2(C)C[C@@H]3O[C@@]4(C[C@@H](C)[C@@H]3[C@@]12C)OC[C@@]1(C)O[C@@H]41", "note": "[23-epi-26-deoxyactein]", "values": [{"measurement": "cell-cycle arrest", "setting": "[4]", "result": "induced cell-cycle arrest at G1"}, {"measurement": "IC50", "setting": "[1]", "result": 21, "unit": "µg/mL"}, {"measurement": "pIC50", "setting": "[1]", "result": 4.49}]}
{"molecule": "C[C@@H]1C[C@@H]2O[C@@]3(O[C@@H]2C(C)(C)O)[C@H](O)[C@@]2(C)[C@@H]4CC[C@H]5C(C)(C)[C@@H](O)CC[C@@]56C[C@@]46CC[C@]2(C)[C@@H]13", "note": "[Cimigenol, cimigenol]", "values": [{"measurement": "effect on the growth of human breast cancer cells", "setting": "[10]", "result": "less active than cimigenol glycoside"}]}
{"molecule": "COc1cc(/C=C/C(=O)O)ccc1O", "note": "[ferulic, ferulic acid]", "values": [{"measurement": "effect on the growth of MCF7 cells", "setting": "[1]", "result": "active in suppressing the growth"}]}
